Test results as given in the supplement of paper PMC10307832.

compound: CC(C)C[C@H](NC(=O)[C@H](CCc1ccccc1)NC(=O)CN1CCOCC1)C(=O)N[C@@H](Cc1ccccc1)C(=O)N[C@@H](CC(C)C)C(=O)[C@@]1(C)CO1 [Carfilzomib] + Nc1nc2[nH]cc(CCc3ccc(C(=O)N[C@@H](CCC(=O)O)C(=O)O)cc3)c2c(=O)[nH]1 [Pemetrexed] (partner 0.2 µM); test: relative viability (nuclei count vs DMSO), 5 days (fraction); higher = more cells survive; settings: first compound 0.1 µM
Procedure, shortened: (§1)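 Relative viability was taken as the ratio of nuclei in treated wells to nuclei in vehicle wells. Lung cancer cell lines in 1536-well plates received compounds by pin tool one day after seeding, either one drug alone or a fixed anchor-drug dose plus five library-drug doses (not always all listed) in √10 steps. Nuclei were counted on 4× images after 5 days of treatment, and values are medians of duplicate plates.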

Cell Line | relative viability
EMC-BAC-2 | 0.432
EPLC-272H | 0.0633
H3255 | 0.249
HARA | 0.155
HCC-15 | 0.13
HCC-44 | 0.685
HCC-78 | 0.9
HCC-366 | 0.039
HCC-827 | 0.155
HOP-62 | 0.063
LC-2-ad | 0.232
LCLC-97TM1 | 0.0627
LCLC-103H | 0.404
LK-2 | 0.0939
LOU-NH91 | 0.335
LU99A | 0.188
LXF-289 | 0.125
NCI-H522 | 0.339
NCI-H1563 | 0.498
NCI-H1648 | 0.263
NCI-H1650 | 0.166
NCI-H2170 | 0.183
NCI-H2228 | 0.143
NCI-H2342 | 0.449
SW 900 | 0.216

compound: O=C(c1cc(Cc2n[nH]c(=O)c3ccccc23)ccc1F)N1CCN(C(=O)C2CC2)CC1 [Olaparib] + Nc1ncn([C@H]2C[C@H](O)[C@@H](CO)O2)c(=O)n1 [Decitabine] (partner 2 µM); test: as above; settings: first compound 0.08 µM
Procedure, shortened: as §1

Cell Line | relative viability
201T | 0.819
A549 | 0.119
A-427 | 0.471
ABC-1 | 1.07
BEN | 0.654
COR-L23 | 0.353
COR-L 105 | 0.581
ChaGo-K-1 | 0.45
EKVX | 0.238
EMC-BAC-2 | 0.931
EPLC-272H | 0.478
H3255 | 0.548
HARA | 0.437
HCC-15 | 0.682
HCC-44 | 0.812
HCC-78 | 0.613
HCC-366 | 0.186

Cell Line | relative viability
HCC-827 | 0.306
HOP-62 | 0.18
LC-2-ad | 0.618
LCLC-97TM1 | 0.193
LCLC-103H | 0.626
LK-2 | 0.258
LOU-NH91 | 0.853
LU99A | 0.933
LXF-289 | 0.336
NCI-H522 | 0.745
NCI-H727 | 0.908
NCI-H1648 | 0.431
NCI-H1650 | 0.432
NCI-H2170 | 0.422
NCI-H2342 | 0.756
SW 900 | 0.355

same assay, conditions: first compound 0.253 µM

Cell Line | relative viability
201T | 0.68
A549 | 0.073
A-427 | 0.478
BEN | 0.55
COR-L23 | 0.266
COR-L 105 | 0.618
ChaGo-K-1 | 0.43
EKVX | 0.276
EMC-BAC-2 | 0.869
EPLC-272H | 0.349
H3255 | 0.516
HARA | 0.397
HCC-15 | 0.479
HCC-44 | 0.846
HCC-78 | 0.562
HCC-366 | 0.144
HCC-827 | 0.266
HOP-62 | 0.17
LC-2-ad | 0.623
